Patent publication US20220289679A1, “HETEROCYCLIC COMPOUND” (Takeda Pharmaceutical Company Limited, priority 2019, published 2022)

Target: T1, human GCS (glucosylceramide synthase) (Homo sapiens, UniProt Q16739)
T1 construct: made in house; host or cells: Expi293F cells (transient expression; microsome fraction)
T1 sequence (Q16739 1-394): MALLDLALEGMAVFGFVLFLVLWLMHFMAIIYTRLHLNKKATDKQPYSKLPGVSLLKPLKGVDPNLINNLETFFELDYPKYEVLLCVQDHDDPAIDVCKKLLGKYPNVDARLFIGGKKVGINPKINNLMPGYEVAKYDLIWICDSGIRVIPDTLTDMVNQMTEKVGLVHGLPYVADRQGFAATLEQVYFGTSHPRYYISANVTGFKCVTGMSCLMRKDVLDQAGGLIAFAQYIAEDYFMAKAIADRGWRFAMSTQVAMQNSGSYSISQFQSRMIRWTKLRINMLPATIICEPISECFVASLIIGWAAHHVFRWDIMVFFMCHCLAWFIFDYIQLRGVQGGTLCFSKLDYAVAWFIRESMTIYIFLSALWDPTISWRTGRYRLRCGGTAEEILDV
Assay: Glucosylceramide Synthase (GCS) Assay
Format: biochemical
Details: test compound 10 μM; microsome fraction of Expi293F cells expressing human GCS; 1.7 μM UDP-glucose, 3 μM C8 ceramide; room temperature 60 min; C8 glucosylceramide by Rapidfire MS/MS; read-out: GCS enzyme inhibitory rate at 10 μM (%)
Procedure: In enzyme assay, a microsome fraction obtained by transient expression by Expi293F™ cells (catalog number: A14527, Thermo Fisher Scientific) was used as a glucosylceramide synthase source. Liposomal C8 ceramide and UDP-glucose were used as substrates. For each substrate concentration, 1.7 μM UDP-glucose, which is equal to the Km value, and 3 μM C8 ceramide were used. After the enzymatic reaction, the analysis was performed with Rapidfire MS/MS (API-4000™, SCIEX), and C8 glucosylceramide was quantified to evaluate the inhibitory activity of the test compound against glucosylceramide synthase activity.
PcDNA3.3TOPO vector (catalog number: K830001, Thermo Fisher Scientific) into which the human GCS gene was inserted was introduced into Expi293F™ Cells (catalog number: A14527, Thermo Fisher Scientific) by using ExpiFectamine™ 293 Transfection Kit (catalog number: A14525, Thermo Fisher Scientific). The cultured cells were dissolved in D-PBS (catalog number: 048-29805, Fuji Film Wako Pure Chemical Industries, Ltd.) containing 1 mM PMSF, and the solution was allowed to stand on ice for 30 minutes, and then subjected to cell disruption (homogenized). The disruption solution was centrifuged at 10,000×g for 20 minutes at 4° C., and the obtained supernatant was centrifuged at 142,400×g for 60 minutes at 4° C. The obtained precipitate was resuspended in a D-PBS solution containing 1 mM PMSF, and homogenized again to prepare as a microsome fraction. Protein quantification was performed by the CBB method.
A 1 mM compound solution prepared by dissolving the test compound in DMSO was added to a 384-well plate by 100 nL so that the final concentration of the test compound was 10 μM. Next, a substrate solution consisting of 3.4 μM UDP-glucose and 6 μM C8 ceramide was added by 5 μL, followed by an enzyme solution consisting of a 25 μg/mL microsome fraction by 5 μL. C8 ceramide was prepared from liposomes composed of 15 mol % C8 ceramide and 85 mol % dioleoyl phosphatidylcholine (1,2-dioleoyl-sn-glycero-3-phosphocholine: DOPC). The enzymatic reaction was carried out in a solution consisting of 20 mM tris-hydrochloric acid buffer (pH 7.5), 0.01% Tween 20, 0.01% bovine serum albumin and 1 mM dithiothreitol at room temperature for 60 min. Then, a solution consisting of 75% isopropanol and 1% formic acid containing 0.25 μM N-Octadecanoyl-D35-psichosine (catalog number: 1914, Matreya) as an internal standard substance was added by 60 μL to stop the enzymatic reaction. 5 μL of the centrifugal supernatant of the obtained reaction product was analyzed by Rapidfire MS/MS (Agilent Technologies) using API-4000™ (SCIEX), and the C8 glucosylceramide was quantified to evaluate the inhibitory activity of the test compound against the glucosylceramide synthase activity. The inhibitory activity of the test compound was evaluated when the C8 glucosylceramide level in the enzyme-free solution was considered as 100% inhibitory and the enzyme activity of the DMSO group in the absence of the compound was considered as 0% inhibitory.

| SMILES | inhibition at 10 µM [%] |
| --- | --- |
| O=C(Nc1ccc(C(F)(F)F)nn1)c1cccn(-c2ccc(F)cc2OCC(F)(F)F)c1=O [Example 38, 1-[4-fluoro-2-(2,2,2-trifluoroethoxy)phenyl]-2-oxo-N-[6-(trifluoromethyl)pyridazin-3-yl]-1,2-dihydropyridine-3-carboxamide] | 97 |
| O=C(Nc1cnn(CC2CC2)c1)c1cccn(-c2ccc(F)cc2OCC(F)(F)F)c1=O [Example 40, N-[1-(cyclopropylmethyl)-1H-pyrazol-4-yl]-1-[4-fluoro-2-(2,2,2-trifluoroethoxy)phenyl]-2-oxo-1,2-dihydropyridine-3-carboxamide] | 69 |
| N#Cc1ccc(NC(=O)c2cccn(-c3ccc(F)cc3OCC(F)(F)F)c2=O)cc1 [Example 41, N-(4-cyanophenyl)-1-[4-fluoro-2-(2,2,2-trifluoroethoxy)phenyl]-2-oxo-1,2-dihydropyridine-3-carboxamide] | 88 |
| CC(C)(O)c1ccc(NC(=O)c2cccn(-c3ccc(F)cc3OCC(F)(F)F)c2=O)cc1 [Example 42, 1-[4-fluoro-2-(2,2,2-trifluoroethoxy)phenyl]-N-[4-(2-hydroxypropan-2-yl)phenyl]-2-oxo-1,2-dihydropyridine-3-carboxamide] | 99 |
| O=C(Nc1ccc(C(=O)N2CCCCC2)cc1)c1cccn(-c2ccc(F)cc2OCC(F)(F)F)c1=O [Example 43, 1-[4-fluoro-2-(2,2,2-trifluoroethoxy)phenyl]-2-oxo-N-[4-(piperidine-1-carbonyl)phenyl]-1,2-dihydropyridine-3-carboxamide] | 95 |
| O=C(Nc1cnn(CC(F)(F)F)c1)c1cccn(-c2ccc(F)cc2OCC(F)(F)F)c1=O [Example 48, 1-[4-fluoro-2-(2,2,2-trifluoroethoxy)phenyl]-2-oxo-N-[1-(2,2,2-trifluoroethyl)-1H-pyrazol-4-yl]-1,2-dihydropyridine-3-carboxamide] | 70 |
| O=C(Nc1ccc(C(F)F)nc1)c1cccn(-c2ccc(F)cc2OCC(F)(F)F)c1=O [Example 49, N-[6-(difluoromethyl)pyridin-3-yl]-1-[4-fluoro-2-(2,2,2-trifluoroethoxy)phenyl]-2-oxo-1,2-dihydropyridine-3-carboxamide] | 97 |
| O=C(Nc1ccc(OCC2CC2)cc1)c1cccn(-c2ccc(F)cc2OCC(F)(F)F)c1=O [Example 50, N-[4-(cyclopropylmethoxy)phenyl]-1-[4-fluoro-2-(2,2,2-trifluoroethoxy)phenyl]-2-oxo-1,2-dihydropyridine-3-carboxamide] | 100 |
| O=C(Nc1cnc(OC(F)F)nc1)c1cccn(-c2ccc(F)cc2OCC(F)(F)F)c1=O [Example 51, N-[2-(difluoromethoxy)pyrimidin-5-yl]-1-[4-fluoro-2-(2,2,2-trifluoroethoxy)phenyl]-2-oxo-1,2-dihydropyridine-3-carboxamide] | 84 |
| N#Cc1cc(F)ccc1-n1cccc(C(=O)Nc2ccc(OCC(F)(F)F)nc2)c1=O [Example 52, 1-(2-cyano-4-fluorophenyl)-2-oxo-N-[6-(2,2,2-trifluoroethoxy)pyridin-3-yl]-1,2-dihydropyridine-3-carboxamide] | 85 |
| O=C(Nc1ccc(OCC(F)(F)F)nc1)c1cccn(-c2ccc(F)cc2OCC(F)(F)C(F)(F)F)c1=O [Example 56, 1-[4-fluoro-2-(2,2,3,3,3-pentafluoropropoxy)phenyl]-2-oxo-N-[6-(2,2,2-trifluoroethoxy)pyridin-3-yl]-1,2-dihydropyridine-3-carboxamide] | 100 |
| N#CCc1ccc(NC(=O)c2cccn(-c3ccc(F)cc3OCC(F)(F)F)c2=O)cc1 [Example 57, N-[4-(cyanomethyl)phenyl]-1-[4-fluoro-2-(2,2,2-trifluoroethoxy)phenyl]-2-oxo-1,2-dihydropyridine-3-carboxamide] | 95 |
| CC(C)(O)c1ccc(NC(=O)c2cccn(-c3ccc(F)cc3OCC(F)(F)C(F)(F)F)c2=O)cc1 [Example 58, 1-[4-fluoro-2-(2,2,3,3,3-pentafluoropropoxy)phenyl]-N-[4-(2-hydroxypropan-2-yl)phenyl]-2-oxo-1,2-dihydropyridine-3-carboxamide] | 99 |
| CC(C)(O)COc1ccc(NC(=O)c2cccn(-c3ccc(F)cc3OCC(F)(F)F)c2=O)cc1 [Example 60, 1-[4-fluoro-2-(2,2,2-trifluoroethoxy)phenyl]-N-[4-(2-hydroxy-2-methylpropoxy)phenyl]-2-oxo-1,2-dihydropyridine-3-carboxamide] | 92 |
| CC(C)(O)Cc1ccc(NC(=O)c2cccn(-c3ccc(F)cc3OCC(F)(F)F)c2=O)cc1 [Example 61, 1-[4-fluoro-2-(2,2,2-trifluoroethoxy)phenyl]-N-[4-(2-hydroxy-2-methylpropyl)phenyl]-2-oxo-1,2-dihydropyridine-3-carboxamide] | 95 |
| O=C(Nc1cnn(CC(F)(F)C(F)(F)F)c1)c1cccn(-c2ccc(F)cc2OCC(F)(F)F)c1=O [Example 62, 1-[4-fluoro-2-(2,2,2-trifluoroethoxy)phenyl]-2-oxo-N-[1-(2,2,3,3,3-pentafluoropropyl)-1H-pyrazol-4-yl]-1,2-dihydropyridine-3-carboxamide] | 77 |
| CC(C)(O)c1ccc(NC(=O)c2cccn(-c3ccccc3OCC(F)(F)F)c2=O)cc1 [Example 63] | 100 |
| O=C(Nc1ccc(OCCC(F)(F)F)nc1)c1cccn(-c2ccc(F)cc2OCC(F)(F)F)c1=O [Example 64, 1-[4-fluoro-2-(2,2,2-trifluoroethoxy)phenyl]-2-oxo-N-[6-(3,3,3-trifluoropropoxy)pyridin-3-yl]-1,2-dihydropyridine-3-carboxamide] | 99 |
| O=C(Nc1cnn(CC2(F)CC2)c1)c1cccn(-c2ccc(F)cc2OCC(F)(F)F)c1=O [Example 66, N-{1-[(1-fluorocyclopropyl)methyl]-1H-pyrazol-4-yl}-1-[4-fluoro-2-(2,2,2-trifluoroethoxy)phenyl]-2-oxo-1,2-dihydropyridine-3-carboxamide] | 60 |
| CC(C)(O)COc1cc(F)ccc1-n1cccc(C(=O)Nc2ccc(OCC(F)(F)F)nc2)c1=O [Example 67, 1-[4-fluoro-2-(2-hydroxy-2-methylpropoxy)phenyl]-2-oxo-N-[6-(2,2,2-trifluoroethoxy)pyridin-3-yl]-1,2-dihydropyridine-3-carboxamide] | 89 |
| Cc1cccc(OCC(F)(F)F)c1-n1cccc(C(=O)Nc2ccc(C(C)(C)O)cc2)c1=O [Example 68, N-[4-(2-hydroxypropan-2-yl)phenyl]-1-[2-methyl-6-(2,2,2-trifluoroethoxy)phenyl]-2-oxo-1,2-dihydropyridine-3-carboxamide] | 97 |
| O=C(Nc1ccc(C2(O)CC2)cc1)c1cccn(-c2ccc(F)cc2OCC(F)(F)F)c1=O [Example 69, 1-[4-fluoro-2-(2,2,2-trifluoroethoxy)phenyl]-N-[4-(1-hydroxycyclopropyl)phenyl]-2-oxo-1,2-dihydropyridine-3-carboxamide] | 99 |
| CC(C)(O)COc1ccc(NC(=O)c2cccn(-c3ccccc3OCC(F)(F)F)c2=O)cc1 [Example 70, N-[4-(2-hydroxy-2-methylpropoxy)phenyl]-2-oxo-1-[2-(2,2,2-trifluoroethoxy)phenyl]-1,2-dihydropyridine-3-carboxamide] | 97 |
